pEC50, pIC50: −log10 of the molar value. Active and inactive are the calls of the source. The rule behind the calls is not given here.
What was measured:
Melanocortin receptor 4 [1] = molecular target: T1, Melanocortin receptor 4 (Homo sapiens, UniProt P32245); test: Inhibition of human MC4 receptor
[2] = Agonist activity at human MC1b receptor; format: functional
Melanocortin receptor 4 [3] = molecular target: T1, Melanocortin receptor 4; test: Agonist activity at human MC4 receptor; format: functional
Melanocortin receptor 4 [4] = molecular target: T1, Melanocortin receptor 4; test: Agonist activity at human MC4 receptor assessed as receptor activation; format: functional
Homo sapiens = species: Homo sapiens; test: Agonist activity at human MC1b receptor assessed as receptor activation; format: functional; set-up: concentration or dose not given beside the values
Mus musculus [5] = test: Reduction in food intake in DIO mouse obesity model at 10 mg/kg, po measured for 18 hrs; format: functional
Mus musculus [6] = test: Reduction in food intake in wild type mouse at 10 mg/kg, po after 18 hrs; format: functional
Mus musculus [7] = test: Reduction in food intake in DIO mouse obesity model at 3 mg/kg, po measured for 18 hrs; format: functional
[8] = Oral bioavailability in Sprague-Dawley rat at 1 mg/kg, iv and 4 mg/kg, po; format: ADME, organism-based; conditions: in vivo
Mus musculus [9] = test: Reduction in food intake in DIO mouse obesity model at 1 mg/kg, po measured for 18 hrs; format: functional
Mus musculus [10] = test: Reduction in food intake in DIO mouse obesity model at 6 mg/kg, po after 4 hrs; format: functional
Mus musculus [11] = test: Reduction in body weight in DIO mouse obesity model at 20 mg/kg, po after 4 hrs; format: functional, organism-based; set-up: dose 20 mg/kg
[12] = Clearance in Sprague-Dawley rat at 1 mg/kg, iv and 4 mg/kg, po; format: ADME, organism-based; conditions: in vivo
Mus musculus [13] = test: Reduction in food intake in DIO mouse obesity model at 20 mg/kg, po after 18 hrs; format: functional
Mus musculus [14] = test: Reduction in food intake in wild type mouse at 20 mg/kg, po after 4 hrs; format: functional
[15] = Half life in Sprague-Dawley rat at 1 mg/kg, iv and 4 mg/kg, po; format: ADME, organism-based; conditions: in vivo
[16] = Volume of distribution in Sprague-Dawley rat at 1 mg/kg, iv and 4 mg/kg, po; format: ADME, organism-based; conditions: in vivo
Mus musculus [17] = test: Reduction in food intake in DIO mouse obesity model at 3 mg/kg, po after 18 hrs; format: functional
Mus musculus [18] = test: Reduction in body weight in DIO mouse obesity model at 6 mg/kg, po after 4 hrs; format: functional, organism-based; set-up: dose 6 mg/kg
Mus musculus [19] = test: Reduction in food intake in DIO mouse obesity model at 20 mg/kg, po after 4 hrs; format: functional
Mus musculus [20] = test: Reduction in food intake in DIO mouse obesity model at 3 mg/kg, po after 4 hrs; format: functional
Mus musculus [21] = test: Reduction in food intake in wild type mouse at 10 mg/kg, po after 4 hrs; format: functional
Mus musculus [22] = test: Reduction in food intake in wild type mouse at 20 mg/kg, po after 18 hrs; format: functional
Mus musculus [23] = test: Reduction in food intake in DIO mouse obesity model at 6 mg/kg, po after 18 hrs; format: functional
Mus musculus [24] = test: Reduction in body weight in DIO mouse obesity model at 3 mg/kg, po after 4 hrs; format: functional, organism-based; set-up: dose 3 mg/kg
Mus musculus [25] = test: Reduction in food intake in MC4R/3R knockout mouse at 10 mg/kg, po after 4 hrs; format: functional
Mus musculus [26] = test: Reduction in food intake in MC4R/3R knockout mouse at 10 mg/kg, po after 18 hrs; format: functional

T1 sequence (P32245 whole entry): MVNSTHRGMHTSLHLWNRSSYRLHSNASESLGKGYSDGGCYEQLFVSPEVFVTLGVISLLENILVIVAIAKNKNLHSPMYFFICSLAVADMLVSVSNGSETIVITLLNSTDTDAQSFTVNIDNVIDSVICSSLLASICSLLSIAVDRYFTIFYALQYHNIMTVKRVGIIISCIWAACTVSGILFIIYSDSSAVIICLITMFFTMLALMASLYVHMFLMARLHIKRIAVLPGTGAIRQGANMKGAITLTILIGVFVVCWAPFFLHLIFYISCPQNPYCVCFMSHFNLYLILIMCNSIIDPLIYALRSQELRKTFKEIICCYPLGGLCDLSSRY

| Structure (SMILES) | pIC50 (Melanocortin receptor 4 [1]) | pEC50 [2] | pEC50 (Melanocortin receptor 4 [3]) | Activity (Melanocortin receptor 4 [4]) | Activity (Homo sapiens) | inhibition in vivo at 10 mg/kg (Mus musculus [6]) | bioavailability [8] | inhibition in vivo at 6 mg/kg (Mus musculus [10]) | clearance [12] | inhibition in vivo at 20 mg/kg (Mus musculus [13]) | inhibition in vivo at 20 mg/kg (Mus musculus [14]) | half-life [15] | Vd [16] | inhibition in vivo at 20 mg/kg (Mus musculus [19]) | inhibition in vivo at 3 mg/kg (Mus musculus [20]) | inhibition in vivo at 10 mg/kg (Mus musculus [21]) | inhibition in vivo at 20 mg/kg (Mus musculus [22]) | inhibition in vivo at 6 mg/kg (Mus musculus [23]) | also measured |
| --- | --- | --- | --- | --- | --- | --- | --- | --- | --- | --- | --- | --- | --- | --- | --- | --- | --- | --- | --- |
| Cc1cc2c(cc1Cl)C1(CCN(C(=O)[C@@H]3CN(C(C)(C)C)C[C@H]3c3ccc(F)cc3F)CC1)CC2C(C)(C)c1nnco1 (stereo in doubt; 5d2) [listing 1 of 2 here] | 8.89 | 6.86 | 8.66 | – | – | – | – | – | – | – | – | – | – | – | – | – | – | – | – |
| Cc1cc2c(cc1Cl)C1(CCN(C(=O)[C@@H]3CN(C(C)(C)C)C[C@H]3c3ccc(F)cc3F)CC1)CC2C(C)(C)c1cnn[nH]1 (stereo not given in full) | 7.80 | 5.98 | 8.38 | 82% | 31% | – | – | – | – | – | – | – | – | – | – | – | – | – | – |
| Cc1cc2c(cc1Cl)C1(CCN(C(=O)[C@@H]3CN(C(C)(C)C)C[C@H]3c3ccc(F)cc3F)CC1)CC2C(C)(C)c1nnco1 (stereo in doubt; 5d2) [listing 2 of 2 here] | – | – | – | 92% | 57% | – | – | – | – | – | – | – | – | – | – | – | – | – | – |
| Cc1nnc(C(C)(C)[C@H]2CC3(CCN(C(=O)[C@@H]4CN(C(C)(C)C)C[C@H]4c4ccc(F)cc4F)CC3)c3cc(Cl)c(C)cc32)o1 | 8.72 | 5.94 | 8.64 | 97% | 88% | – | – | – | – | – | – | – | – | – | – | – | – | – | – |
| Cc1cc2c(cc1Cl)C1(CCN(C(=O)[C@@H]3CN(C(C)(C)C)C[C@H]3c3ccc(F)cc3F)CC1)CC2C(C)(C)c1nnco1 (stereo in doubt; 5d1) [listing 1 of 2 here] | 7.31 | – | 6.68 | – | – | – | – | – | – | – | – | – | – | – | – | – | – | – | – |
| Cc1cc2c(cc1Cl)C1(CCN(C(=O)[C@@H]3CC(N(C)C4CCOCC4)C[C@H]3c3ccc(F)cc3F)CC1)C[C@@H]2C(C)(C)c1ncnn1C (stereo not given in full) | 9.37 | 6.60 | 9.96 | 99% | 49% | 30% | 20% | 56% | 24 mL/min/kg | 17% | 35% | 5.1 h | 9.7 L/kg | 39% | 31% | 46% | 18% | 28% | inhibition in vivo at 10 mg/kg (Mus musculus [5]): 31%; inhibition in vivo at 3 mg/kg (Mus musculus [7]): 56%; inhibition in vivo at 1 mg/kg (Mus musculus [9]): 32%; Activity (Mus musculus [11]): Active; inhibition in vivo at 3 mg/kg (Mus musculus [17]): 15%; Activity (Mus musculus [18]): Active; Activity (Mus musculus [24]): Active |
| Cc1cc2c(cc1Cl)C1(CCN(C(=O)[C@@H]3CN(C4CCOCC4)C[C@H]3c3ccc(F)cc3F)CC1)C[C@@H]2C(C)(C)c1ncnn1C | 9.08 | 6.15 | 9.05 | 105% | 54% | 22% | 35% | 37% | 37 mL/min/kg | 11% | 28% | 3.4 h | 10 L/kg | 31% | 19% | 40% | 13% | 18% | inhibition in vivo at 10 mg/kg (Mus musculus [25]): 20% |
| Cc1cnc(C(C)(C)[C@H]2CC3(CCN(C(=O)[C@@H]4CN(C(C)(C)C)C[C@H]4c4ccc(F)cc4F)CC3)c3cc(Cl)c(C)cc32)o1 | 8.01 | 5.78 | 7.32 | 99% | 57% | – | – | – | – | – | – | – | – | – | – | – | – | – | – |
| Cc1cc2c(cc1Cl)C1(CCN(C(=O)[C@@H]3CN(C(C)(C)C)C[C@H]3c3ccc(F)cc3F)CC1)C[C@@H]2C(C)(C)c1ncnn1C | 9.39 | 6.90 | 9.64 | 106% | 80% | 32% | 26% | 51% | 6.7 mL/min/kg | 18% | 24% | 9.4 h | 5 L/kg | 38% | 29% | 47% | 17% | 27% | inhibition in vivo at 10 mg/kg (Mus musculus [26]): 43%; inhibition in vivo at 3 mg/kg (Mus musculus [17]): 16%; inhibition in vivo at 10 mg/kg (Mus musculus [25]): 67% |
| Cc1nc(C(C)(C)C2CC3(CCN(C(=O)[C@@H]4CN(C(C)(C)C)C[C@H]4c4ccc(F)cc4F)CC3)c3cc(Cl)c(C)cc32)no1 (stereo not given in full) | 8.24 | 6.07 | 7.85 | 71% | 46% | – | – | – | – | – | – | – | – | – | – | – | – | – | – |
| Cc1cc2c(cc1Cl)C1(CCN(C(=O)[C@@H]3CN(C(C)(C)C)C[C@H]3c3ccc(F)cc3F)CC1)CC2C(C)(C)c1nnco1 (stereo in doubt; 5d1) [listing 2 of 2 here] | – | – | – | 117% | 10% | – | – | – | – | – | – | – | – | – | – | – | – | – | – |
| Cc1cc2c(cc1Cl)C1(CCN(C(=O)[C@@H]3CCN(C(C)(C)C)C[C@H]3c3ccc(F)cc3F)CC1)C[C@@H]2C(C)(C)c1ncnn1C | 8.77 | 5.98 | 8.62 | 96% | 37% | 37% | 86% | 47% | 22 mL/min/kg | 15% | 24% | 11 h | 19 L/kg | 30% | 29% | 46% | 17% | 31% | inhibition in vivo at 10 mg/kg (Mus musculus [26]): 19%; inhibition in vivo at 3 mg/kg (Mus musculus [17]): 8%; inhibition in vivo at 10 mg/kg (Mus musculus [25]): 40% |
